# Measurements: US20160113931A1, “Method of treating and/or preventing neurodegenerative diseases” (University of Macau, priority 2014, published 2016)
# Entries after “also recorded” stand apart in the source; their conditions may differ.
# How the values were obtained:
# [1] = OPC proliferation (MTT assay); type: cell-based, rat; settings: rat, primary oligodendroglial progenitor cells (OPCs), 100 μM, read-out: OPC viability compared with the control group (cytotoxicity)
# Experimental: (§1) FIGS. 10A, 10B and 10C show the effects of BHDPC in oligodendroglial progenitor cells (OPCs) proliferation. OPCs were incubated with the drugs at indicated concentrations in proliferation medium for 2 days. (FIG. 10A) The cell viability was measured by MTT assay.
# (§2) The percentage of surviving cells was estimated by determining the activity of mitochondrial dehydrogenases with 3(4,5-dimethylthiazol-2-yl)-2,5-diphenyltetrazolium bromide (MTT) assay. After drug treatment, cells were incubated at 37° C. for 4 h in 0.5 mg/mL MTT solution. The medium was then removed, and 100 μL of DMSO was added to each well to dissolve the violet formazan crystals. The absorbance of the samples was measured at a wavelength of 570 nm with 655 nm as a reference wavelength. All values were normalized to the control groups.
# (§3) Purified OPC cultures were prepared as described. In brief, primary rat mixed glial cell cultures were isolated from whole brains of postnatal day (P) 2 rats, dissociated into single cells, and cultured into poly-D-lysine (PDL) coated T75 tissue culture flasks. Plating medium consisted of Dulbecco's modified Eagle's medium (DMEM, Invitrogen, Carlsbad, Calif.) supplemented with 10% fetal bovine serum (FBS; Invitrogen, Carlsbad, Calif.), […]. Tissue cultures were maintained at 37° C. in a humidified 5% CO2 incubator, and medium was exchanged every 3 days. Once confluent (after 10-15 days), microglia were separated by mechanical shaking of flasks on a rotary shaker for […] at 250 rpm and removed. After addition of fresh medium, the remaining cells were allowed to recover overnight before repeating the mechanical shaking for an additional 16 h at 200 rpm to isolate OPCs. To ensure purity of OPC cultures, the isolated cells were transferred to a tissue culture dish, from which the loosely attached OPCs were detached by gentle shaking after 60 min, leaving behind attached microglia and astrocytes. OPCs were plated onto PDL coated 96 well plates using an automated dispenser and allowed to adhere to the plates over the next 1-2 days.
# (§4) To test the effect of BHDPC on primary OPC culture, OPCs were treated with BHDPC for 48 h and the cell viability was determined using MTT assay. […] The proliferation activity of BHDPC was also confirmed by the EdU incorporative assay.
# [2] = system: oligodendroglial progenitor cells (OPCs); assay: OPC proliferation (MTT assay); type: cell-based, rat; settings: Rattus norvegicus, 48 h, read-out: OPC viability compared with the control group
# Experimental: as §1, §2, §3, §4
# zebrafish = assay: MPTP-induced deficit of locomotion behavior in zebrafish larvae; type: in vivo, Danio rerio
# Experimental: Three dpf zebrafish embryos were co-incubated with 10 μM MPTP and BHDPC at the indicated concentrations for 96 hours, and zebrafish larval co-treated with MPTP and 150 μM L-dopa was used as positive control. After treatment, zebrafish were collected to perform locomotion behavior test using Viewpoint Zebrabox system and total distances travelled in 10 min were calculated.
# The AB strain of wild type zebrafish (Danio rerio) was maintained as described in the Zebrafish Handbook. Zebrafish were staged by days post fertilization […]. For breeding, groups of male and female (3:2) adult zebrafish were placed in 10-L plastic aquarium equipped with spawning nets in the evening. In the following morning, eggs were collected from the breeding group tanks. Normally developed fertilized eggs were selected under a stereomicroscope for further studies. The MPTP manipulation was performed with appropriate safety precautions and all MPTP-containing water was bleached.
# In addition, MPTP markedly altered the swimming behavior of the zebrafish as a consequence of DA neuronal injury. […] BHDPC ameliorated MPTP-induced deficit of swimming behavior. At the same condition, MPTP-induced deficit of swimming behavior were rescued by positive controls, levodopa (L-dopa) (FIG. 16).
# ROCK2 = ROCK2 (Homo sapiens, UniProt O75116); assay: Kinase activity assay ROCK2; type: biochemical; settings: read-out: ROCK 2 IC50
# Sequence of ROCK2 (O75116 whole entry, species assumed, canonical isoform): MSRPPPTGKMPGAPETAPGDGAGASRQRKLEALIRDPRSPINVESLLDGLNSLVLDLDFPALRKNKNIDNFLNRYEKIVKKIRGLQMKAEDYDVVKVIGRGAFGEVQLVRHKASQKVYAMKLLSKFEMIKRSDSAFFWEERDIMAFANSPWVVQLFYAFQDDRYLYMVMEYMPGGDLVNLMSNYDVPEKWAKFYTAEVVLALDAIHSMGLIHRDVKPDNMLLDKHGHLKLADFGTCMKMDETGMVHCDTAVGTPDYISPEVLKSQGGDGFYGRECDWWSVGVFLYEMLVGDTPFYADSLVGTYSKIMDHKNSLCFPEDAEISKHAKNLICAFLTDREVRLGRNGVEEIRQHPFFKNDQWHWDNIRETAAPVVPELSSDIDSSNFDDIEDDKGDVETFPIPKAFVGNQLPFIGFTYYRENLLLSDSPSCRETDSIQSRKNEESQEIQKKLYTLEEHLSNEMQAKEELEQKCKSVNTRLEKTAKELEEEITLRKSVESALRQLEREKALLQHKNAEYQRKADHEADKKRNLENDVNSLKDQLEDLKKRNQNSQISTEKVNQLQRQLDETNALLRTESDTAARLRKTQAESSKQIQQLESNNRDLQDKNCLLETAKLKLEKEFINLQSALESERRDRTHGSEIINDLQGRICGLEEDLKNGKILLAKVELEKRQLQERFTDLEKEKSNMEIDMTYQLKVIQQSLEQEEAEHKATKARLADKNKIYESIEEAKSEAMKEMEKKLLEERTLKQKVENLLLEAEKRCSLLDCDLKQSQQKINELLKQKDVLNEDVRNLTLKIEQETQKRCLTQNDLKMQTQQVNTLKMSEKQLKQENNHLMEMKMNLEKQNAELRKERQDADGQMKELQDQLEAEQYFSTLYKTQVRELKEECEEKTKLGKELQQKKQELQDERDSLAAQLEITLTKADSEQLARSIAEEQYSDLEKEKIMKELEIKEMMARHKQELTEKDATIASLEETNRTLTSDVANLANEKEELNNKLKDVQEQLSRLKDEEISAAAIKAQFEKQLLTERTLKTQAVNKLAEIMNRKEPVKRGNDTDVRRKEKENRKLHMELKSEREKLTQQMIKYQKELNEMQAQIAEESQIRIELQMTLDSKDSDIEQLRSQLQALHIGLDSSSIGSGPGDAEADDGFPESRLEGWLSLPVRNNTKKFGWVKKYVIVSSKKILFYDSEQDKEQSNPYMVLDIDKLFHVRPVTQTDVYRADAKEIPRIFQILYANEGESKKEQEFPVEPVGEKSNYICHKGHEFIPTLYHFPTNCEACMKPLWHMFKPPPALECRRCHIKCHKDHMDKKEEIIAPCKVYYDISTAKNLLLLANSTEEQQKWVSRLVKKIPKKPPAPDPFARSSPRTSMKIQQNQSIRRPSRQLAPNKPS
# Text: ROCK has two isoforms (ROCK1 and ROCK2) sharing the same downstream proteins. Bioassay and molecular docking are used to compare the characteristics of BHDPC on ROCK. […] Through molecular docking and molecular dynamics simulation, the interaction between the inhibitor and ROCK1 was shown in FIG. 17.
smiles,measurement,setting,value
"COc1cc(C2C(C(=O)OCc3ccccc3)=C(C)Nc3nnnn32)ccc1O (centres unmarked) [BHDPC, benzyl 7-(4-hydroxy-3-methoxyphenyl)-5-methyl-4,7-dihydrotetrazolo[1,5-a]pyrimidine-6-carboxylate]","viability at 48 h, 100 µM",[1],65%
same,viability at 1 µM,[2]; 1 μM,100%
same,viability at 3 µM,[2]; 3 μM,106%
same,viability at 10 µM,[2]; 10 μM,127%
same,viability at 30 µM,[2]; 30 μM,152%
same,swimming behaviour of normal zebrafish larvae,zebrafish; BHDPC treatment alone,notably altered
same,MPTP-induced deficit of swimming behavior (total distance travelled in 10 min),"zebrafish; co-incubated with 10 μM MPTP, 96 hours, 3 dpf",ameliorated; also recorded: attenuated
same,IC50,ROCK2,408 µM
